Values after ≈ are worked out from the molar mass of the structure shown. Like-named read-outs stand apart in the source and are kept apart here.
Tests used:
[1] = DPPH radical scavenging assay; format: biochemical; conditions: 30 min, 517 nm
Method: To estimate the Carbazole derivatives' antioxidant potential, a solution of each compound (1 mM/mL) in methanol was serially diluted with methanol to obtain a concentration of 1, 2, 5, 10, 20, 50, and 100 µM/mL. Then, DPPH (2,2-diphenyl-1-picrylhydrazyl) reagent (Sigma, USA) was dissolved in 0.002% w/v methanol and mixed with the previously prepared working concentrations in a 1:1 ratio. The same procedures were repeated for Trolox (Sigma-Aldrich, Denmark), which was used as a positive control. All of the solutions were kept in the dark chamber for 30 min at an ordinary temperature. Then, their absorbance values were measured at a wavelength of 517 nm utilizing a UV–visible spectrophotometer. The DPPH inhibition potentials by Carbazole derivatives and Trolox were determined employing the following equation: DPPH inhibition(\%)=abs(blank)-abs(sample)/abs(blank)∗100\% where absblank is the blank absorbance and abssample is the absorbance of the samples [58]. The antioxidant half-maximal inhibitory concentration (IC50) of the synthesized carbazole derivatives and Trolox were assessed by using an online tool “Quest Graph™ IC50 Calculator.” AAT Bioquest, Inc., 25 May. 2023, https://www.aatbio.com/tools/ic50-calculator.

MCF-7 cell line = test: MTT cell viability, MCF-7 cancer cell line; format: cell-based
Method: MCF-7 cancer cell lines were cultured at Dulbecco’s Modified Eagle Medium High Glucose (DMEM) (EuroClone, Via Figino, Italy); fetal bovine serum (FBS) and MTT (3-(4,5-Dimethylthiazol-2-yl)-2,5-Diphenyl Tetrazolium Bromide) were provided by Sigma-Aldrich (Darmstadt, Germany); ApopNexin Annexin-V-FITC with PI Apoptosis Kit was obtained from Merck (Darmstadt, Germany); Total RNA Isolation Kit was provided by Analytic Jena (Jena, Germany), SensiFast cDNA Synthesis Kit was provided by Meridian Bioscience (Cincinati, USA), SybrGreen Master Mix was obtained from EuroClone (Via Figino, Italy).
(§1) Cells (MCF-7 and L929) were incubated in 75 cm^2 sterile flasks with 10% FBS, 100 U/mL penicillin, and 100 µg/mL streptomycin. The cells were grown at 37 ^○C in 5% CO2, and MTT was used to screen the viability of the cells. Cells were seeded at a density of 10^4 cells per well. The cells were then cultured for 24 h in 100 µl of DMEM complete medium. After pretreatment with different concentrations of the compounds for 48 h, 10 µl of 5 mg/mL MTT solution was added to each well and incubated for 4 h at 37 ^○C, and 100 µl of DMSO was used in each well to dissolve the blue formazan crystals. Then, the absorbance was measured at 570 nm. The cell viability percentages of compound 4o against MCF-7 cancer cell lines and L929 normal cell lines were presented in Fig. 2 in comparison with doxorubicin anticancer agent.

L929 normal cell lines = test: MTT cell viability, L929 normal cell line; format: cell-based; conditions: Mus musculus, 48 h
Method: as §1

MCF-7 cells [2] = test: Annexin-V-FITC/PI apoptosis assay by flow cytometry; format: cell-based
Method: FITC Annexin-V apoptosis detection kit with PI, ApopNexinTM FITC (APT750, Merk, Germany) was used for apoptosis assay. MCF-7 cells were seeded into a 6-well plate (1 × 10^6 cells per well). Then, the cells were incubated with the compounds at the cytotoxic concentration by employing a cell viability assay. Apoptotic cells were cultured with the compounds, the medium was removed after incubation, and the cells were washed twice with 5 mL of pre-chilled phosphate-buffered saline. Cells washed with PBS were lifted with Trypsin–EDTA and centrifuged at 400 rpm for 5 min. The resulting cells were each treated with 1 mL of cold 1-X Binding Buffer (Sigma Aldrich, USA). Then, 200 μL of the mixture was taken and placed in a flow cytometry tube, and the other part containing cells was kept on ice. First, 3 µl of ApopNexinTM FITC and 2 µl of 100X propidium iodide (PI) (P4170, Sigma Aldrich, USA) were added to the solution taken into the sample tube and mixed. The resulting mixture was incubated for 15 min in the dark at room temperature. At the end of the incubation, the samples were measured in flow cytometry (Beckman Coulter Cytoflex) and data were obtained.

MCF-7 cells [3] = test: Cell cycle analysis by flow cytometry; format: cell-based
Text: The manufacturer protocol (Sigma-Aldrich Mak344 Cell Cycle Analysis Kit) was used to perform cell cycle experiments and analyzed by flow cytometry (Beckman Coulter Cytoflex).

Staphylococcus aureus = test: MIC and MBC test, S. aureus; format: cell-based; conditions: Staphylococcus aureus
Method: (§2) Using Muller Hinton agar medium, the antibacterial activity was evaluated by using 24 h cultures of Escherichia coli, Staphylococcus aureus, and Candida albicans. E. coli and S. aureus were incubated in 1% Mueller Hinton Broth (MHB) liquid medium at 37 °C for 24 h; C. albicans was incubated in Sabouraud Dextrose Broth (SDB) at 30 °C for 48 h. MIC (Minimum Inhibitory Concentration) and MBC (Minimum Bactericidal Concentration) tests were performed to determine antimicrobial activity. This stage was carried out in a sterile cabinet.
(§3) The density of microorganisms in fresh cultures was adjusted according to the MacFarland 0.5 scale. For that, the microorganisms were centrifuged at 4000 rpm for 20 min. The supernatant was poured off, and the pellet was washed with 1 mL of 0.9% NaCl solution (physiological saline). The centrifugation was then repeated. The pellet was dissolved again with saline solution and adjusted to 0.5 MacFarland. In the experiment performed in a sterile 96-well plate, compound 4o was diluted ½ with DMSO to prepare a stock solution. In the first, 100 µl of medium and 100 µl of compound 4o as initial dilutions. Dilution was performed seven times at a ratio of ½. Then, 5 µl of fresh microorganism cultures prepared as MacFarland 0.5 were inoculated. The control group was prepared as 100 µl medium, 100 µl distilled water, and 5 µl microorganisms. The plates were incubated at 37 °C and 30 °C for 24 h.
(§4) After incubation, 10 µl of the sample was taken, dropped onto the respective media, and incubated for 24 h at appropriate temperatures to clearly distinguish the residues left by the compound 4o and the growth of microorganisms. Mueller Hinton Agar (MHA) was used for E. coli and S. aureus, and Potato Dextrose Agar (PDA) was used for C. albicans. After incubation, MIC and MBC values were determined. The first well with a significant decrease in growth was considered as MIC, and the first well with no growth was considered as MBC [59, 60].

Escherichia coli = test: MIC and MBC test, E. coli; format: cell-based; conditions: Escherichia coli
Method: as §2, §3, §4

Candida albicans = test: MIC and MBC test, C. albicans; format: cell-based
Method: as §2, §3, §4

[4] = design: method as in PMID 37328860; conditions: previous preliminary work; read-out: Antioxidant IC50 against DPPH; cited from earlier work
HeLa cancer cell lines = test system: HeLa cancer cell lines; design: method as in PMID 37328860; conditions: previous preliminary work; read-out: anticancer IC50 HeLa; cited from earlier work
MCF-7 cancer cell lines = test system: MCF-7 cancer cell lines; design: method as in PMID 37328860; conditions: previous preliminary work; read-out: anticancer IC50 MCF-7; cited from earlier work

Row | IC50 [1] [µM] | IC50 (MCF-7 cell line; Homo sapiens, MCF7, MTT, 48 h, read-out: IC50 values Carbazole Derivatives Effect on MCF-7 Cell Line) [µM] | MIC (Staphylococcus aureus) [µM] | MIC (Escherichia coli; read-out: MIC) [µM] | MIC (Candida albicans) [µM] | SMILES | selective index (SI) (MCF-7 cell line; L929 vs MCF-7) | IC50 (L929 normal cell lines) [µM] | induction of apoptosis (MCF-7 cells [2]; MCF-7) | necrosis cell population (MCF-7 cells [2]; MCF-7, cytotoxic concentration) [%] | post-apoptotic cell population (MCF-7 cells [2]; MCF-7, cytotoxic concentration) [%] | pre-apoptotic cell population (MCF-7 cells [2]; MCF-7, cytotoxic concentration) [%] | viable cell population (MCF-7 cells [2]; MCF-7, cytotoxic concentration) [%] | total dead cells (MCF-7 cells [2]; MCF-7, sum of pre-apoptotic, post-apoptotic and necrosis) [%] | cell cycle arrest (MCF-7 cells [3]) | MBC (Staphylococcus aureus; read-out: MBC) [µM] | MBC (Escherichia coli; read-out: MBC) [µM] | MBC (Candida albicans) [µM] | IC50 [4] [µM] | IC50 (HeLa cancer cell lines) [µM] | IC50 (MCF-7 cancer cell lines) [µM]
1 | 158 ± 2.54 | 2.02 ± 0.04 | 1.56 (≈ 0.628 µg/mL) | 1.56 (≈ 0.628 µg/mL) | 0.39 (≈ 0.157 µg/mL) | O=C(Cn1c2ccccc2c2ccccc21)NNC(=S)NC(=O)c1ccccc1 [Compound 4o, N-(2-(2-(9H-carbazol-9-yl)acetyl)hydrazine-1-carbonothioyl)benzamide] | 18.70 | 37.8 | drives MCF-7 cells to apoptosis | 3.69 | 4.33 | 8.20 | 83.78 | 16.22 | cell cycle arrest in the MCF-7 cell line in the G2/M phase | 1.56 (≈ 0.628 µg/mL) | 1.56 (≈ 0.628 µg/mL) | 0.39 (≈ 0.157 µg/mL) | – | – | –
2 | – | – | – | – | – | O=C(Cn1c2ccccc2c2ccccc21)N/N=C1\SCC(=O)N1c1ccc(Cl)cc1 [St.2] | – | – | – | – | – | – | – | – | – | – | – | – | 5.15 | 7.59 | 18.4
3 | – | – | – | – | – | O=C(c1ccc(F)cc1)n1nc(Cn2c3ccccc3c3ccccc32)oc1=O [St.3] | – | – | – | – | – | – | – | – | – | – | – | – | – | 17.2 | 6.44
